{
  "source": "patent US20220362242A1",
  "about": "“METHODS AND COMPOSITIONS FOR TREATING MOVEMENT DISORDERS” (Edgewise Therapeutics, Inc., priority 2018, published 2022)",
  "origin": "cited, not measured here",
  "tested_on": "embryos from zebrafish model of DMD",
  "conditions": "control vs BTS treated muscles, FIG. 2",
  "data": [
    {"smiles": "Cc1ccc(S(=O)(=O)NCc2ccccc2)cc1", "note": "[BTS, N-benzyl-p-tolyl-sulfonamide]", "values": [
      {"measurement": "protection of muscles from pathological muscle derangement", "result": "protect muscles from pathological muscle derangement"}
    ]}
  ]
}
